Laboratory results: patent publication US9670221B2, “Furopyridines as bromodomain inhibitors” (GlaxoSmithKline Intellectual Property (No.2) Limited, priority 2013, dated 2017)
Structures can show the parent of a compound that is named as a salt.

What follows are compounds tested against T1, BRD4 BD1 (Homo sapiens, UniProt O60885, Y390A) (assay: TR-FRET binding assay, BRD4 BD1 (mutant protein)). Conditions: BRD4 (1-477) mutant, 10 nM protein, read-out: pIC50 in the BRD4 BD1 assay (converted).
T1 construct: BRD4 (1-477) (Y97A) and (Y390A); made in house; host or cells: E. coli (pET15b vector)
Protocol: Time Resolved Fluorescence Resonance Energy Transfer (TR-FRET) Assay
Binding was assessed using a time resolved fluorescent resonance energy transfer binding assay. This utilises a 6 His purification tag at the N-terminal of the proteins as an epitope for an anti-6 His antibody labeled with Europium chelate (PerkinElmer AD0111) allowing binding of the Europium to the proteins which acts as the donor fluorophore. A small molecule, high affinity binder of the bromodomains BRD2, BRD3, BRD4 and BRDT has been labeled with Alexa Fluor647 (Reference Compound X) and this acts as the acceptor in the FRET pair.
Assay Principle: In the absence of a competing compound, excitation of the Europium causes the donor to emit at λ618 nm which excites the Alexa labelled bromodomain binding compound leading to an increased energy transfer that is measurable at λ647 […]. In the presence of a sufficient concentration of a compound that can bind these proteins, the interaction is disrupted leading to a quantifiable drop in fluorescent resonance energy transfer.
The binding of the compounds of formula (I) to Bromodomains BRD2, BRD3, BRD4 and BRDT was assessed using mutated proteins to detect differential binding to either Binding Domain 1 (BD1) or Binding Domain 2 (BD2) on the bromodomain. These single residue mutations in the acetyl lysine binding pocket greatly lower the affinity of the fluoroligand (Reference Compound X) for the mutated domain (>1000 fold selective for the non-mutated domain). Therefore in the final assay conditions, binding of the fluoroligand to the mutated domain cannot be detected and subsequently the assay is suitable to determine the binding of compounds to the single non-mutated bromodomain.
Protein production: Recombinant Human Bromodomains [(BRD2 (1-473) (Y113A) and (Y386A), BRD3 (1-435) (Y73A) and (Y348A) BRD4 (1-477) (Y97A) and (Y390A) and BRDT (1-397) (Y66A) and (Y309A)] were expressed in E. coli cells (in pET15b vector for BRD2/3/4 and in pET28a vector for BRDT) with a 6-His tag at the N-terminal. The His-tagged Bromodomain pellet was resuspended in 50 mM HEPES (pH7.5), 300 mM NaCl, 10 mM imidazole & 1 μl/mL protease inhibitor cocktail and extracted from the E. coli cells using sonication and purified using a nickel sepharose high performance column, the proteins were washed and then eluted with a linear gradient of 0-500 mM imidazole with buffer 50 mM HEPES (pH7.5), 150 mM NaCl, 500 mM imidazole, over 20 column volumes. Final purification was completed by Superdex 200 prep grade size exclusion column. Purified protein was stored at −80° C. in 20 mM HEPES pH 7.5 and 100 mM NaCl. Protein identity was confirmed by peptide mass fingerprinting and predicted molecular weight confirmed by mass spectrometry.
Protocol for Bromodomain BRD2, 3, 4 and T, BD1^+BD2 mutant assays: All assay components were dissolved in buffer composition of 50 mM HEPES pH7.4, 50 mM NaCl, 5% Glycerol, 1 mM DTT and 1 mM CHAPS. The final concentration of bromodomain proteins were 10 nM and the Alexa Fluor647 ligand was at Kd. These components were premixed and 5 μl of this reaction mixture was added to all wells containing 50 nl of various concentrations of test compound or DMSO vehicle (0.5% DMSO final) in Greiner 384 well black low volume microtitre plates and incubated in dark for 30 minutes at room temperature. 5 μl of detection mixture containing 1.5 nM final concentration anti-6His Europium chelate was added to all wells and a further dark incubation of at least 30 minutes was performed. Plates were then read on the Envision platereader, (λex=317 nm, donor λem=615 nm; acceptor λem=665 nm; Dichroic LANCE dual). Time resolved fluorescent intensity measurements were made at both emission wavelengths and the ratio of acceptor/donor was calculated and used for data analysis. All data was normalized to the mean of 16 high (inhibitor control—Example 11 of WO 2011/054846A1) and 16 low (DMSO) control wells on each plate. […]

Structure (SMILES) | IC50 [nM]
C[C@@H]1CN(S(C)(=O)=O)CCN1Cc1cc2c(=O)n(C)cc(-c3ccncc3OCC3CC3(F)F)c2o1 (stereo partly drawn) [Example 61, 7-(3-((2,2-difluorocyclopropyl)methoxy)pyridin-4-yl)-5-methyl-2-(((R)-2-methyl-4-(methylsulfonyl)piperazin-1-yl)methyl)furo[3,2-c]pyridin-4(5H)-one] | ≤ 10
Cn1cc(-c2ccc(C(=O)O)cc2OCC2CC2)c2oc(CN3CCN(S(C)(=O)=O)CC3)cc2c1=O [Example 67, 3-(cyclopropylmethoxy)-4-(5-methyl-2-((4-(methylsulfonyl)piperazin-1-yl)methyl)-4-oxo-4,5-dihydrofuro[3,2-c]pyridin-7-yl)benzoic acid] | ≤ 10
CCNC(=O)c1ccc(-c2cn(C)c(=O)c3cc(CN4CCN(S(C)(=O)=O)CC4)oc23)c(OCC2CC2)c1 [Example 68, 3-(cyclopropylmethoxy)-N-ethyl-4-(5-methyl-2-((4-(methylsulfonyl)piperazin-1-yl)methyl)-4-oxo-4,5-dihydrofuro[3,2-c]pyridin-7-yl)benzamide] | ≤ 100
C[C@@H]1CN(S(C)(=O)=O)CCN1Cc1cc2c(=O)n(C)cc(-c3ccncc3OCC3CCOC3)c2o1 (stereo partly drawn) [Example 69, 5-methyl-2-(((R)-2-methyl-4-(methylsulfonyl)piperazin-1-yl)methyl)-7-(3-((tetrahydrofuran-3-yl)methoxy)pyridin-4-yl)furo[3,2-c]pyridin-4(5H)-one] | ≤ 100
C[C@@H]1CN(S(C)(=O)=O)CCN1Cc1cc2c(=O)n(C)cc(-c3ccncc3OCC3CCCO3)c2o1 (stereo partly drawn) [Example 70, 5-methyl-2-(((R)-2-methyl-4-(methylsulfonyl)piperazin-1-yl)methyl)-7-(3-((tetrahydrofuran-2-yl)methoxy)pyridin-4-yl)furo[3,2-c]pyridin-4(5H)-one] | ≤ 100
Cn1cc(-c2ccncc2OCC2CC2)c2oc(CN3CCNC(=O)C3)cc2c1=O [Example 71, 7-(3-(cyclopropylmethoxy)pyridin-4-yl)-5-methyl-2-((3-oxopiperazin-1-yl)methyl)furo[3,2-c]pyridin-4(5H)-one hydrochloride] | ≤ 100
C[C@@H]1CN(S(C)(=O)=O)CCN1Cc1cc2c(=O)n(C)cc(-c3ccncc3OC3CC3)c2o1 [Example 73, (R)-7-(3-cyclopropoxypyridin-4-yl)-5-methyl-2-((2-methyl-4-(methylsulfonyl)piperazin-1-yl)methyl)furo[3,2-c]pyridin-4(5H)-one] | ≤ 100
CN1CCN(Cc2cc3c(=O)n(C)cc(-c4ccncc4OCC4CC4)c3o2)CC1=O [Example 76, 7-(3-(cyclopropylmethoxy)pyridin-4-yl)-5-methyl-2-((4-methyl-3-oxopiperazin-1-yl)methyl)furo[3,2-c]pyridin-4(5H)-one hydrochloride] | ≤ 100
COC(C)COc1cnccc1-c1cn(C)c(=O)c2cc(CN3CCN(S(C)(=O)=O)C[C@H]3C)oc12 (stereo partly drawn) [Example 78, 7-(3-(2-methoxypropoxy)pyridin-4-yl)-5-methyl-2-(((R)-2-methyl-4-(methylsulfonyl)piperazin-1-yl)methyl)furo[3,2-c]pyridin-4(5H)-one] | ≤ 100

More lines, now with the values ahead:

IC50 [nM] | Structure (SMILES)
≤ 100 | Cl.[2H]C([2H])([2H])n1cc(-c2ccnc(NC(C)=O)c2)c2oc(CN3CCN(S(C)(=O)=O)C[C@H]3C)cc2c1=O [Example 62, (R)-N-(4-(5-(^2H3)methyl-2-((2-methyl-4-(methylsulfonyl)piperazin-1-yl)methyl)-4-oxo-4,5-dihydrofuro[3,2-c]pyridin-7-yl)pyridin-2-yl)acetamide]
≤ 100 | C[C@@H]1CN(S(C)(=O)=O)CCN1Cc1cc2c(=O)n(C)cc(-c3cccc(NC(=O)CCCCN)c3)c2o1 [Example 64, (R)-5-amino-N-(3-(5-methyl-2-((2-methyl-4-(methylsulfonyl)piperazin-1-yl)methyl)-4-oxo-4,5-dihydrofuro[3,2-c]pyridin-7-yl)phenyl)pentanamide hydrochloride]
≤ 100 | CC(=O)Nc1cc(-c2cn(C)c(=O)c3cc(C(C)(C)N4CCN(S(C)(=O)=O)CC4)oc23)ccn1 [Example 65, N-(4-(5-methyl-2-(2-(4-(methylsulfonyl)piperazin-1-yl)propan-2-yl)-4-oxo-4,5-dihydrofuro[3,2-c]pyridin-7-yl)pyridin-2-yl)acetamide]
≤ 100 | COCCOc1cnccc1-c1cn(C)c(=O)c2cc(CN3CCN(S(C)(=O)=O)C[C@H]3C)oc12 [Example 66, (R)-7-(3-(2-methoxyethoxy)pyridin-4-yl)-5-methyl-2-((2-methyl-4-(methylsulfonyl)piperazin-1-yl)methyl)furo[3,2-c]pyridin-4(5H)-one]
≤ 100 | C[C@@H]1CN(S(C)(=O)=O)CCN1Cc1cc2c(=O)n(C)cc(-c3ccncc3OCCF)c2o1 [Example 72, (R)-7-(3-(2-fluoroethoxy)pyridin-4-yl)-5-methyl-2-((2-methyl-4-(methylsulfonyl)piperazin-1-yl)methyl)furo[3,2-c]pyridin-4(5H)-one]
≤ 100 | C[C@@H]1CN(S(C)(=O)=O)CCN1Cc1cc2c(=O)n(C)cc(-c3ccncc3OCC(F)F)c2o1 [Example 74, (R)-7-(3-(2,2-difluoroethoxy)pyridin-4-yl)-5-methyl-2-((2-methyl-4-(methylsulfonyl)piperazin-1-yl)methyl)furo[3,2-c]pyridin-4(5H)-one]
≤ 100 | CC(=O)Nc1cc(-c2cn(C)c(=O)c3cc(CN4CCNC(=O)CC4)oc23)ccn1 [Example 82, N-(4-(5-methyl-4-oxo-2-((5-oxo-1,4-diazepan-1-yl)methyl)-4,5-dihydrofuro[3,2-c]pyridin-7-yl)pyridin-2-yl)acetamide]
≤ 100 | CC(=O)Nc1cc(-c2cn(C)c(=O)c3cc(CN4CCS(=O)(=O)CC4)oc23)ccn1 [Example 87, N-(4-(2-((1,1-dioxidothiomorpholino)methyl)-5-methyl-4-oxo-4,5-dihydrofuro[3,2-c]pyridin-7-yl)pyridin-2-yl)acetamide]
≤ 100 | CC(=O)Nc1cc(-c2cn(C)c(=O)c3cc(CN4CC(C)N(S(C)(=O)=O)CC4C)oc23)ccn1 (stereo not drawn) [Example 96, N-(4-(2-((2,5-dimethyl-4-(methylsulfonyl)piperazin-1-yl)methyl)-5-methyl-4-oxo-4,5-dihydrofuro[3,2-c]pyridin-7-yl)pyridin-2-yl)acetamide]
≤ 100 | CC(=O)Nc1cc(-c2cn(C)c(=O)c3cc(CN4CCC(=O)NCC4C)oc23)ccn1 (stereo not drawn) [Example 100, N-(4-(5-methyl-2-((2-methyl-5-oxo-1,4-diazepan-1-yl)methyl)-4-oxo-4,5-dihydrofuro[3,2-c]pyridin-7-yl)pyridin-2-yl)acetamide]
≤ 100 | CC(=O)Nc1cc(-c2cn(C)c(=O)c3cc(CN4CCS(=O)(=O)CC4C)oc23)ccn1 (stereo not drawn) [Example 102, N-(4-(5-methyl-2-((3-methyl-1,1-dioxidothiomorpholino)methyl)-4-oxo-4,5-dihydrofuro[3,2-c]pyridin-7-yl)pyridin-2-yl)acetamide]
≤ 100 | CC(=O)Nc1cc(-c2cn(C)c(=O)c3cc(CN4CCN(S(C)(=O)=O)[C@@H](C)C4)oc23)ccn1 [Example 108, (S)—N-(4-(5-methyl-2-((3-methyl-4-(methylsulfonyl)piperazin-1-yl)methyl)-4-oxo-4,5-dihydrofuro[3,2-c]pyridin-7-yl)pyridin-2-yl)acetamide]
